# Experimental data published in paper PMC9481570, “A small molecule antagonist of SMN disrupts the interaction between SMN and RNAP II” (Nature Communications, 2022).
# Several values for one entry are separate records, joined by “and”; a condition that tells them apart may be missing. Identical values can stand only once.
# Experiments:
# Assay in all cases: Affinity-purification and mass spectrometry (AP-MS) chemical proteomics, all proteins;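 on Difference: 200 µM free competitor with 20 µM biotin probe overnight in lysate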
# Format in all cases: binding
# [1] = target: T1, proteins displaced from immobilized biotin-Cmpd 1 pulldowns (U2OS cell lysate) (Homo sapiens, UniProt P52948); conditions: GN=NUP98 (P52948)
# T1 construct: endogenous in cells; host or cells: U2OS
# [2] = target: T2, proteins displaced from immobilized biotin-Cmpd 1 pulldowns (U2OS cell lysate) (Homo sapiens, UniProt Q6UB35); conditions: GN=MTHFD1L (Q6UB35)
# T2 construct: endogenous in cells; host or cells: U2OS
# [3] = target: T3, proteins displaced from immobilized biotin-Cmpd 1 pulldowns (U2OS cell lysate) (Homo sapiens, UniProt P09211); conditions: GN=GSTP1 (P09211)
# T3 construct: endogenous in cells; host or cells: U2OS
# [4] = target: T4, proteins displaced from immobilized biotin-Cmpd 1 pulldowns (U2OS cell lysate) (Homo sapiens, UniProt P13639); conditions: GN=EEF2 (P13639)
# T4 construct: endogenous in cells; host or cells: U2OS
# [5] = target: T5, proteins displaced from immobilized biotin-Cmpd 1 pulldowns (U2OS cell lysate) (Homo sapiens, UniProt Q9BYD6); conditions: GN=MRPL1 (Q9BYD6)
# T5 construct: endogenous in cells; host or cells: U2OS
# [6] = target: T6, proteins displaced from immobilized biotin-Cmpd 1 pulldowns (U2OS cell lysate) (Homo sapiens, UniProt P22735); conditions: GN=TGM1 (P22735)
# T6 construct: endogenous in cells; host or cells: U2OS
# [7] = target: T7, proteins displaced from immobilized biotin-Cmpd 1 pulldowns (U2OS cell lysate) (Homo sapiens, UniProt Q9BVJ6); conditions: GN=UTP14A (Q9BVJ6)
# T7 construct: endogenous in cells; host or cells: U2OS
# [8] = target: T8, proteins displaced from immobilized biotin-Cmpd 1 pulldowns (U2OS cell lysate) (Homo sapiens, UniProt Q9UKD2); conditions: GN=MRTO4 (Q9UKD2)
# T8 construct: endogenous in cells; host or cells: U2OS
# [9] = target: T9, proteins displaced from immobilized biotin-Cmpd 1 pulldowns (U2OS cell lysate) (Homo sapiens, UniProt P06733); conditions: GN=ENO1 (P06733)
# T9 construct: endogenous in cells; host or cells: U2OS
# [10] = target: T10, proteins displaced from immobilized biotin-Cmpd 1 pulldowns (U2OS cell lysate) (Homo sapiens, UniProt Q7Z2W9); conditions: GN=MRPL21 (Q7Z2W9)
# T10 construct: endogenous in cells; host or cells: U2OS
# T6 sequence (P22735 whole entry): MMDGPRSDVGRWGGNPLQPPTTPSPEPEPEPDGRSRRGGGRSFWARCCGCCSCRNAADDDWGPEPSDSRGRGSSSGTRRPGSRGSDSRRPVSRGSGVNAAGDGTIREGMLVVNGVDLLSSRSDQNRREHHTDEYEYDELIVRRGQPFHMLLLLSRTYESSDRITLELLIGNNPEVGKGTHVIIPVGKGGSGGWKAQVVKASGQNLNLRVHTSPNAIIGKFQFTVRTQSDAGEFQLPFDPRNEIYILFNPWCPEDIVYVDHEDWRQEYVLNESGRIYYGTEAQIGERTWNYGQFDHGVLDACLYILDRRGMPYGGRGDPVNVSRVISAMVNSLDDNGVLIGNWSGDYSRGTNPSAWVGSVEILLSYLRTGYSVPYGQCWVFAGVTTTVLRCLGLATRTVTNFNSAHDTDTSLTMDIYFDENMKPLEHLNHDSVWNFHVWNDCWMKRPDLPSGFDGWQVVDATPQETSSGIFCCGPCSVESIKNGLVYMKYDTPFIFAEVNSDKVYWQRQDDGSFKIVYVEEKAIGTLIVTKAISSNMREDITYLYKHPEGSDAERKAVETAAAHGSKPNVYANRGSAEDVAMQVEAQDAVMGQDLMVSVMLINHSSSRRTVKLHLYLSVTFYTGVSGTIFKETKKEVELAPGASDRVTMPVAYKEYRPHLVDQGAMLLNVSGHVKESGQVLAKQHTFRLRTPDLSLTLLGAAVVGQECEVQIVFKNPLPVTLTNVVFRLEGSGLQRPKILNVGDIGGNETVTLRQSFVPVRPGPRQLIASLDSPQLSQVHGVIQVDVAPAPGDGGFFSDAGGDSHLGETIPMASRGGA
# T9 sequence (P06733 whole entry): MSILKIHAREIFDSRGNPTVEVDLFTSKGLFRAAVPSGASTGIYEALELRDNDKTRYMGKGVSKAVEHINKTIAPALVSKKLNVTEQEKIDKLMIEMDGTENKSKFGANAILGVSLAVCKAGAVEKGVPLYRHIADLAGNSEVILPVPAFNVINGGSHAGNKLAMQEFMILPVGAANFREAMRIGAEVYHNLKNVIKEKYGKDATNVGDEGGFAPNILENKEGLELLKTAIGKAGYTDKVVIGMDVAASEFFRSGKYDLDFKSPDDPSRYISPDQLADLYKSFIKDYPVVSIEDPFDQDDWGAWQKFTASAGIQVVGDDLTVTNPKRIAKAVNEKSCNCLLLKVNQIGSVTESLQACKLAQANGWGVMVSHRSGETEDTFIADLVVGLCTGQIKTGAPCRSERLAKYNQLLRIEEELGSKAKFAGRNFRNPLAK
# T2 sequence (Q6UB35 32-978): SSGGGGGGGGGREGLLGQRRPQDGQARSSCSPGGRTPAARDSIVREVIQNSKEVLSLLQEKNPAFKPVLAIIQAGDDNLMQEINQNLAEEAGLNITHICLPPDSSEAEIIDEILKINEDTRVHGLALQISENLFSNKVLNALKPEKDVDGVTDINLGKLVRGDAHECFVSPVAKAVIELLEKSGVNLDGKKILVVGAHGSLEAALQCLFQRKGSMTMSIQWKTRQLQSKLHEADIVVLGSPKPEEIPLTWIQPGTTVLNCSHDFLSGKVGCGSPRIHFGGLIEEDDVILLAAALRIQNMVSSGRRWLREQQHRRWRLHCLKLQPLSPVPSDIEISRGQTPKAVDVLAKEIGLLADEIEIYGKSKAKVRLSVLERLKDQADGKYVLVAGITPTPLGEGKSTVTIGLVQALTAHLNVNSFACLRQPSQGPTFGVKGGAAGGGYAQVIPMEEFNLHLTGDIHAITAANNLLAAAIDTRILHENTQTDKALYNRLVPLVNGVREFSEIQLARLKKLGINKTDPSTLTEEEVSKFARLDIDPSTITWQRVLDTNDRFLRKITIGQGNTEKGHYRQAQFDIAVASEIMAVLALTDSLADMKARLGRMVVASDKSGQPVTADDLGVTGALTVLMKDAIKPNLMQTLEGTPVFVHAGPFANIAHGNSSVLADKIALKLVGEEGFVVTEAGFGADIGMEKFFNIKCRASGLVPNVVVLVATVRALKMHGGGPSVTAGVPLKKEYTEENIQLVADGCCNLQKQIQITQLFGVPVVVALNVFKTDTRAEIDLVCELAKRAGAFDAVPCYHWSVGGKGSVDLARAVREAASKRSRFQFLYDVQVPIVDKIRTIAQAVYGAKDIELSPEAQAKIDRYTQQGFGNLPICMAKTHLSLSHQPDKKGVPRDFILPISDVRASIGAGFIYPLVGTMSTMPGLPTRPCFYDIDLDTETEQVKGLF
# T7 sequence (Q9BVJ6 whole entry): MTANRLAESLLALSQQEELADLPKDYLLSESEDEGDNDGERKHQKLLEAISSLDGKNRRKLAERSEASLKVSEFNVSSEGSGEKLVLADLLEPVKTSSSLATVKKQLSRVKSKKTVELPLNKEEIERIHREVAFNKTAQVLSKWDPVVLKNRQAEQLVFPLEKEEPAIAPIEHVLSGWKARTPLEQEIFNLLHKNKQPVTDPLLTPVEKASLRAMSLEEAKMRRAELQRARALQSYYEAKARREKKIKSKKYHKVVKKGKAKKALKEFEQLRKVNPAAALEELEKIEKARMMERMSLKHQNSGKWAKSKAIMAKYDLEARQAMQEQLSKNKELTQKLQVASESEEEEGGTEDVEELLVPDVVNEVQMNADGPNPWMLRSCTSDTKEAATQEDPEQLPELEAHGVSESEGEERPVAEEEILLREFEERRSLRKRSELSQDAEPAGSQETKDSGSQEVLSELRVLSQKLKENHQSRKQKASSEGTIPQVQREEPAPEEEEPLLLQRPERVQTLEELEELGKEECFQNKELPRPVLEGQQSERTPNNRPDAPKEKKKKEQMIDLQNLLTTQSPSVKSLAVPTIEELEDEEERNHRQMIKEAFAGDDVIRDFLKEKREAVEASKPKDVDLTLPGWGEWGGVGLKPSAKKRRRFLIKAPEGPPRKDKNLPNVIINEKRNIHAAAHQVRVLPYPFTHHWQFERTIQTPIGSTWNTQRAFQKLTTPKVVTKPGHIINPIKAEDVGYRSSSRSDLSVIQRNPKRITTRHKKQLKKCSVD
# T1 sequence (P52948 whole entry): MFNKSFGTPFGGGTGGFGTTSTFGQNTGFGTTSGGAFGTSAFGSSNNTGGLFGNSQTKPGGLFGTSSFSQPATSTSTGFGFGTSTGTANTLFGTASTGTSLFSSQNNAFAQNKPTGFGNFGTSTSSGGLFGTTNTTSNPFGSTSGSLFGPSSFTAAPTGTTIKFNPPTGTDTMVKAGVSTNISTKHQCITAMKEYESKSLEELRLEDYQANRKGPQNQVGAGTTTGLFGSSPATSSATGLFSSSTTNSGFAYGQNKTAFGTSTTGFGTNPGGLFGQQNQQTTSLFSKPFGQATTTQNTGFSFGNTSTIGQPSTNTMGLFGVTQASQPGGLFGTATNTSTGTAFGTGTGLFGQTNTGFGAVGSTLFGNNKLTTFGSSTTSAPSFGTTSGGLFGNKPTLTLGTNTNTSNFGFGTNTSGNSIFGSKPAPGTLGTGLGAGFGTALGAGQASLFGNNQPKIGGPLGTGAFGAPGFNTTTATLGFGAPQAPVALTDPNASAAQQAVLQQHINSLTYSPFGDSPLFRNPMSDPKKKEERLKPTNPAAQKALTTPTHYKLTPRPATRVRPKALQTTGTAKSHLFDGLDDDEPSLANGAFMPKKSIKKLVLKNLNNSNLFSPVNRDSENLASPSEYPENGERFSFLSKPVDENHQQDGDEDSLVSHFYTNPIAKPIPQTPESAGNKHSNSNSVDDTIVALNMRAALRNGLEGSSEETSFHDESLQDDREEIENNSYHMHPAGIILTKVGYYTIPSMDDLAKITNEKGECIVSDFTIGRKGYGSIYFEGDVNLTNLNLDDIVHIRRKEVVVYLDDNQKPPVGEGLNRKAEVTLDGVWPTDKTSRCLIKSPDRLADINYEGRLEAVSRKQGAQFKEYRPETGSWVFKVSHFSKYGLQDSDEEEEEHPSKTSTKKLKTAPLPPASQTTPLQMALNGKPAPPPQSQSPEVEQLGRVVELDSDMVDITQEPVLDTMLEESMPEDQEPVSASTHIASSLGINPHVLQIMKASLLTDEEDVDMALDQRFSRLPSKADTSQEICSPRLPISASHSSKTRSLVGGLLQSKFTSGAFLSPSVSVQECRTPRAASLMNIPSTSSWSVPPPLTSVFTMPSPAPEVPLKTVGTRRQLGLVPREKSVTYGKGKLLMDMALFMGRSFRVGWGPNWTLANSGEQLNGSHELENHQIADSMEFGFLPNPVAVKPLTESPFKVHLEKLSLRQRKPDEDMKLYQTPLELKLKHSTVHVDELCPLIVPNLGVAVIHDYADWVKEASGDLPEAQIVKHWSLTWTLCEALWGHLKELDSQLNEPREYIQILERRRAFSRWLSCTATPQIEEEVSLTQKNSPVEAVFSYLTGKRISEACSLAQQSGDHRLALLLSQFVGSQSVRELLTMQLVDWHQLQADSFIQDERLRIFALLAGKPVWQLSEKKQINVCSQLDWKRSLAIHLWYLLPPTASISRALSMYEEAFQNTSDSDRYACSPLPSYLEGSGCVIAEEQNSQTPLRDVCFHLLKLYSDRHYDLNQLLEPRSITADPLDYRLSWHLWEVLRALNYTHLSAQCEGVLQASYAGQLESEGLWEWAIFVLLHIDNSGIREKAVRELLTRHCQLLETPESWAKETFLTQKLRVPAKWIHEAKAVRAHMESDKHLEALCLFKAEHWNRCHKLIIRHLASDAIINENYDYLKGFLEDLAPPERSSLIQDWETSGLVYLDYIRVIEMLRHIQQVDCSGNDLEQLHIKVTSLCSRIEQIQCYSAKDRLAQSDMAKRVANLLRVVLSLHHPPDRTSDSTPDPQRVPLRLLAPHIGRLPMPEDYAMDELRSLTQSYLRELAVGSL
# T3 sequence (P09211 whole entry): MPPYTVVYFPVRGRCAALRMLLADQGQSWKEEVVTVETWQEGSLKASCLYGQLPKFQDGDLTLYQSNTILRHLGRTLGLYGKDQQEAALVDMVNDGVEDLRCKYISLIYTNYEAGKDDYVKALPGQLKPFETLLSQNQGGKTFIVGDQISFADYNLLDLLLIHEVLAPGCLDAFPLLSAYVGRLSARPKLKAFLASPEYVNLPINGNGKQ
compound,measurement,setting,value
"Cn1c2c(c(=N)c3c1CCC3)CCC2 [Compound 1, 4-methyl-2,3,4,5,6,7-hexahydrodicyclopenta[b,e]pyridin-8(1H)-imine]",Difference,"[1]; Cmpd minus DMSO, -LOG(P-value) 0.703266",1.019
same,iBAQ Cmpd,[1]; replicates 1-3,16.2576 and 15.2783 and 15.0872
same,Difference,"[2]; Cmpd minus DMSO, -LOG(P-value) 1.33022",0.8728
same,iBAQ Cmpd,[2]; replicates 1-3,15.8133 and 15.8201 and 15.0604
same,Difference,"[3]; Cmpd minus DMSO, -LOG(P-value) 0.706691",-2.301
same,iBAQ Cmpd,[3]; replicates 1-3,19.2888 and 14.7277 and 18.6327
same,Difference,"[4]; Cmpd minus DMSO, -LOG(P-value) 1.71036",-0.7791
same,iBAQ Cmpd,[4]; replicates 1-3,17.772 and 17.7165 and 17.939
same,Difference,"[5]; Cmpd minus DMSO, -LOG(P-value) 1.01314",3.091
same,iBAQ Cmpd,[5]; replicates 1-3,18.4151 and 17.6221 and 18.5153
same,Difference,"[6]; Cmpd minus DMSO, -LOG(P-value) 1.15166",-2.41
same,iBAQ Cmpd,[6]; replicates 1-3,15.9988 and 17.3288 and 14.7232
same,Difference,"[7]; Cmpd minus DMSO, -LOG(P-value) 0.846922",1.578
same,iBAQ Cmpd,[7]; replicates 1-3,17.3529 and 17.1229 and 16.9849
same,Difference,"[8]; Cmpd minus DMSO, -LOG(P-value) 1.00789",2.584
same,iBAQ Cmpd,[8]; replicates 1-3,18.8307 and 17.054 and 17.709
same,Difference,"[9]; Cmpd minus DMSO, -LOG(P-value) 1.38674",-0.4405
same,iBAQ Cmpd,[9]; replicates 1-3,21.5649 and 21.7568 and 21.506
same,Difference,"[10]; Cmpd minus DMSO, -LOG(P-value) 0.745191",1.429
same,iBAQ Cmpd,[10]; replicates 1-3,17.7953 and 15.5869 and 17.7004
